# According to US11364256B2, “Viral inhibition” (Monash University, priority 2020, dated 2022):
# Test system: SARS-CoV-2 clinical isolate Australia/VIC01/2020
# Assay: Multidose treatment of SARS-CoV-2 infected Vero/hSLAM or CALU-3 cells, viral load by real-time PCR
# Format: cell-based
# Details: drug replaced at 8, 24, 32 and 48 h, Vero/hSLAM or CALU-3, MOI 0.01
# Experimental: Vero/hSLAM cells (FIG. 4, panels A/C) or CALU-3 (FIG. 4, panels B/D) cells were infected with SARS-CoV-2 clinical isolate Australia/VIC01/2020 (MOI=0.01) for 2 h prior to addition of vehicle (DMSO), Ivermectin (A/B) or Moxidectin (C/D) at the concentrations indicated in FIG. 4. Supernatant was harvested at 8, 24, 32 and 48 h and replaced with fresh media containing the same concentration of drug or DMSO. Samples were quantitated for viral load using real-time PCR. Results represent mean±SD (n=6) relative to DMSO alone under the same conditions. Three parameter dose response curves were fitted using GraphPad prism. The data presented in FIG. 4 are single typical graphs from a series of two similar experiments.
substance,measurement,value
ivermectin,effect of multidose treatment on SARS-CoV-2 anti-viral activity,enhances SARS-CoV-2 anti-viral activity compared to single treatment
